The OligoGym collection
HELM strings list units from the 5' end as sugar, base in round brackets, then linkage (d deoxyribose, r ribose, m 2'-O-methyl, p phosphodiester). Strings are as the collection lists them; they lack the last nucleoside at the 3' end of the tested compound. [moe] = 2'-O-(2-methoxyethyl) (MOE); [sp] = phosphorothioate linkage; [m5C] = 5-methylcytosine

Target: GFAP
Test: mouse, dose not given
Details: ASO

Substance | 3 h FOB score [score 0-7]
RNA1{[moe](A)[sp].[moe](A)p.[moe](A)p.[moe](G)p.[moe](G)p.d([m5C])[sp].d(A)[sp].d([m5C])[sp].d(A)[sp].d(G)[sp].d(T)[sp].d(T)[sp].d([m5C])[sp].d([m5C])[sp].d([m5C])[sp].[moe](A)p.[moe](G)p.[moe](A)[sp].[moe](T)}$$$$ (last 3' nucleoside missing) | 2
RNA1{[moe](G)[sp].[moe]([m5C])p.[moe](A)p.[moe](T)p.[moe](T)[sp].d(T)[sp].d(G)[sp].d(T)[sp].d([m5C])[sp].d(T)[sp].d(T)[sp].d(T)[sp].d(A)[sp].d(T)[sp].d(T)[sp].[moe](T)p.[moe](T)p.[moe](T)[sp].[moe]([m5C])}$$$$ (last 3' nucleoside missing) | 0
RNA1{[moe](G)[sp].[moe](G)p.[moe]([m5C])p.[moe](A)p.d(G)[sp].d(T)[sp].d(A)[sp].d(T)[sp].d(T)[sp].d(A)[sp].d([m5C])[sp].d([m5C])[sp].d(T)[sp].d([m5C])[sp].[moe](T)p.[moe](A)p.[moe]([m5C])p.[moe](T)[sp].[moe](A)}$$$$ (last 3' nucleoside missing) | 3
RNA1{[moe]([m5C])[sp].[moe]([m5C])p.[moe]([m5C])p.[moe]([m5C])p.[moe]([m5C])[sp].d(T)[sp].d([m5C])[sp].d(T)[sp].d(A)[sp].d(T)[sp].d([m5C])[sp].d([m5C])[sp].d([m5C])[sp].d(T)[sp].d([m5C])[sp].[moe]([m5C])p.[moe]([m5C])p.[moe](A)[sp].[moe](G)}$$$$ (last 3' nucleoside missing) | 0
RNA1{[moe](G)[sp].[moe](T)p.[moe](A)p.[moe](T)p.[moe](T)[sp].d(A)[sp].d(G)[sp].d(G)[sp].d(A)[sp].d(T)[sp].d([m5C])[sp].d([m5C])[sp].d([m5C])[sp].[moe](A)p.[moe](T)p.[moe]([m5C])[sp].[moe](T)}$$$$ (last 3' nucleoside missing) | 2
RNA1{[moe](G)[sp].[moe](A)p.[moe](G)p.[moe](T)p.[moe](G)[sp].d(T)[sp].d(G)[sp].d(T)[sp].d(A)[sp].d(T)[sp].d(T)[sp].d(A)[sp].d(G)[sp].d(G)[sp].d(A)[sp].[moe](T)p.[moe]([m5C])p.[moe]([m5C])[sp].[moe]([m5C])}$$$$ (last 3' nucleoside missing) | 6
RNA1{[moe](G)[sp].[moe](T)p.[moe]([m5C])p.[moe](A)p.[moe]([m5C])[sp].d(A)[sp].d(T)[sp].d(T)[sp].d([m5C])[sp].d(A)[sp].d([m5C])[sp].d(T)[sp].d(A)[sp].d(A)[sp].d(T)[sp].[moe](A)p.[moe](T)p.[moe](T)[sp].[moe](T)}$$$$ (last 3' nucleoside missing) | 0
RNA1{[moe](A)[sp].[moe](A)p.[moe](G)p.[moe]([m5C])p.[moe](T)[sp].d([m5C])[sp].d(T)[sp].d(G)[sp].d(A)[sp].d(G)[sp].d([m5C])[sp].d(T)[sp].d(G)[sp].d(T)[sp].d(G)[sp].[moe](G)p.[moe](T)p.[moe](G)[sp].[moe](T)}$$$$ (last 3' nucleoside missing) | 4
RNA1{[moe]([m5C])[sp].[moe](T)p.[moe](T)p.[moe](T)p.d(T)[sp].d(G)[sp].d(A)[sp].d(G)[sp].d(A)[sp].d(T)[sp].d(A)[sp].d(T)[sp].d([m5C])[sp].d(T)[sp].[moe](T)p.[moe](G)p.[moe](T)p.[moe](G)[sp].[moe](A)}$$$$ (last 3' nucleoside missing) | 1
RNA1{[moe](A)[sp].[moe](G)p.[moe]([m5C])p.[moe]([m5C])p.[moe]([m5C])[sp].d([m5C])[sp].d(A)[sp].d([m5C])[sp].d([m5C])[sp].d(T)[sp].d(A)[sp].d(G)[sp].d(A)[sp].d(A)[sp].d(G)[sp].[moe](T)p.[moe](A)p.[moe]([m5C])[sp].[moe]([m5C])}$$$$ (last 3' nucleoside missing) | 2
RNA1{[moe](T)[sp].[moe]([m5C])p.[moe](T)p.[moe](G)p.[moe]([m5C])[sp].d([m5C])[sp].d(A)[sp].d(T)[sp].d(T)[sp].d(T)[sp].d(A)[sp].d(T)[sp].d([m5C])[sp].[moe](T)p.[moe](G)p.[moe](T)[sp].[moe](G)}$$$$ (last 3' nucleoside missing) | 3
RNA1{[moe](G)[sp].[moe](T)p.[moe]([m5C])p.[moe](T)p.d(T)[sp].d(T)[sp].d(A)[sp].d(T)[sp].d(T)[sp].d(T)[sp].d(T)[sp].d(T)[sp].d([m5C])[sp].d([m5C])[sp].[moe](T)p.[moe]([m5C])p.[moe](A)p.[moe](G)[sp].[moe]([m5C])}$$$$ (last 3' nucleoside missing) | 3
RNA1{[moe]([m5C])[sp].[moe](A)p.[moe](A)p.[moe](G)p.[moe]([m5C])[sp].d(T)[sp].d([m5C])[sp].d(T)[sp].d(G)[sp].d([m5C])[sp].d([m5C])[sp].d(A)[sp].d(G)[sp].d(T)[sp].d(T)[sp].[moe](T)p.[moe](A)p.[moe](A)[sp].[moe](T)}$$$$ (last 3' nucleoside missing) | 5
RNA1{[moe](G)[sp].[moe](G)p.[moe]([m5C])p.[moe](A)p.[moe](G)p.[moe](T)p.d(A)[sp].d(T)[sp].d(T)[sp].d(A)[sp].d([m5C])[sp].d([m5C])[sp].d(T)[sp].d([m5C])[sp].d(T)[sp].d(A)[sp].[moe]([m5C])p.[moe](T)[sp].[moe](A)}$$$$ (last 3' nucleoside missing) | 3
RNA1{[moe]([m5C])[sp].[moe](A)p.[moe]([m5C])p.[moe](A)p.[moe](T)p.[moe](T)p.d([m5C])[sp].d(A)[sp].d([m5C])[sp].d(T)[sp].d(A)[sp].d(A)[sp].d(T)[sp].d(A)[sp].d(T)[sp].d(T)[sp].[moe](T)p.[moe](A)[sp].[moe](A)}$$$$ (last 3' nucleoside missing) | 0
RNA1{[moe](G)[sp].[moe](T)p.[moe](G)p.[moe](G)p.[moe](T)p.d([m5C])[sp].d([m5C])[sp].d(T)[sp].d(A)[sp].d(A)[sp].d(A)[sp].d(T)[sp].d(A)[sp].d(T)[sp].d(T)[sp].[moe]([m5C])p.[moe](T)p.[moe](A)[sp].[moe](G)}$$$$ (last 3' nucleoside missing) | 1
RNA1{[moe]([m5C])[sp].[moe]([m5C])p.[moe](A)p.[moe](G)p.[moe](T)[sp].d(G)[sp].d(T)[sp].d([m5C])[sp].d(T)[sp].d(T)[sp].d([m5C])[sp].d(A)[sp].d([m5C])[sp].d(T)[sp].d(T)[sp].[moe](T)p.[moe](G)p.[moe]([m5C])[sp].[moe](T)}$$$$ (last 3' nucleoside missing) | 0
RNA1{[moe](T)[sp].[moe](T)p.[moe](T)p.[moe](T)p.d(G)[sp].d(A)[sp].d(G)[sp].d(A)[sp].d(T)[sp].d(A)[sp].d(T)[sp].d([m5C])[sp].d(T)[sp].d(T)[sp].[moe](G)p.[moe](T)p.[moe](G)p.[moe](A)[sp].[moe]([m5C])}$$$$ (last 3' nucleoside missing) | 3
RNA1{[moe](A)[sp].[moe]([m5C])p.[moe](G)p.[moe](T)p.d([m5C])[sp].d(A)[sp].d([m5C])[sp].d(A)[sp].d(T)[sp].d(T)[sp].d([m5C])[sp].d(A)[sp].d([m5C])[sp].d(T)[sp].[moe](A)p.[moe](A)p.[moe](T)p.[moe](A)[sp].[moe](T)}$$$$ (last 3' nucleoside missing) | 0
RNA1{[moe](A)[sp].[moe](G)p.[moe](T)p.[moe]([m5C])p.[moe](A)p.d(G)[sp].d([m5C])[sp].d([m5C])[sp].d(T)[sp].d(G)[sp].d(G)[sp].d(T)[sp].d(T)[sp].d(A)[sp].d(G)[sp].[moe]([m5C])p.[moe]([m5C])p.[moe](T)[sp].[moe](T)}$$$$ (last 3' nucleoside missing) | 4
RNA1{[moe](G)[sp].[moe](T)p.[moe](G)p.[moe](T)p.[moe](A)p.d(T)[sp].d(T)[sp].d(A)[sp].d(G)[sp].d(G)[sp].d(A)[sp].d(T)[sp].d([m5C])[sp].d([m5C])[sp].d([m5C])[sp].[moe](A)p.[moe](T)p.[moe]([m5C])[sp].[moe](T)}$$$$ (last 3' nucleoside missing) | 2
RNA1{[moe](G)[sp].[moe]([m5C])p.[moe](A)p.[moe](T)p.[moe](T)[sp].d(T)[sp].d(G)[sp].d(T)[sp].d([m5C])[sp].d(T)[sp].d(T)[sp].d(T)[sp].d(A)[sp].[moe](T)p.[moe](T)p.[moe](T)[sp].[moe](T)}$$$$ (last 3' nucleoside missing) | 1
RNA1{[moe]([m5C])[sp].[moe](A)p.[moe](T)p.[moe](T)p.[moe](T)[sp].d(G)[sp].d(T)[sp].d([m5C])[sp].d(T)[sp].d(T)[sp].d(T)[sp].d(A)[sp].d(T)[sp].d(T)[sp].d(T)[sp].[moe](T)p.[moe](T)p.[moe]([m5C])[sp].[moe]([m5C])}$$$$ (last 3' nucleoside missing) | 0
RNA1{[moe](A)[sp].[moe]([m5C])p.[moe](T)p.[moe](A)p.[moe](G)p.[moe](T)p.d([m5C])[sp].d(A)[sp].d(G)[sp].d([m5C])[sp].d([m5C])[sp].d(T)[sp].d(G)[sp].d(G)[sp].d(T)[sp].d(T)[sp].[moe](A)p.[moe](G)[sp].[moe]([m5C])}$$$$ (last 3' nucleoside missing) | 4
RNA1{[moe](G)[sp].[moe](T)p.[moe]([m5C])p.[moe](A)p.[moe]([m5C])[sp].d(A)[sp].d(T)[sp].d(T)[sp].d([m5C])[sp].d(A)[sp].d([m5C])[sp].d(T)[sp].d(A)[sp].[moe](A)p.[moe](T)p.[moe](A)[sp].[moe](T)}$$$$ (last 3' nucleoside missing) | 0
RNA1{[moe](A)[sp].[moe](T)p.[moe](T)p.[moe](T)p.[moe](G)p.[moe](G)p.d([m5C])[sp].d(A)[sp].d(G)[sp].d(T)[sp].d(A)[sp].d(T)[sp].d(T)[sp].d(A)[sp].d([m5C])[sp].d([m5C])[sp].[moe](T)p.[moe]([m5C])[sp].[moe](T)}$$$$ (last 3' nucleoside missing) | 0
